Marks after values point to notes of the source that are not given here.
Assays:
rat CFA pain model [1] = assay: multi-dose oral pharmacodynamic study in rat CFA pain model (Von Frey PWT); type: in vivo
Protocol: The efficacy of Compound 1a and Compound 14 in the rat CFA pain model was evaluated using a mechanical allodynia method.
SD rats, 72 males, divided into 9 groups, were purchased from Beijing Vital River Laboratory Animal Technology Co., Ltd.
The experimental animals were adaptively reared for 3 to 7 days, and 8 of them were selected as a normal control group, and the other animals were injected with 50 µL of CFA in the center of the left hind paw for modeling. 24 hours after injection, the animals were tested for paw withdrawal threshold (PWT) basal values, and were divided into groups according to the basal values, which were solvent control group, indomethacin group, Compound 1a, 10 mpk group, Compound 1a, 30 mpk group, Compound 1a, 100 mpk group, Compound 14, 3 mpk group, Compound 14, 10 mpk group, and Compound 14, 30 mpk group, with 8 animals in each group. Subsequently, the animals were weighed and administered orally according to Table 6. All the animals were tested for paw withdrawal thresholds (PWT) using Von Frey 1, 2, and 4 hours after administration to further evaluate the efficacy of the compounds of the present invention.

[2] = pharmacokinetic evaluation in rats after oral and intravenous administration; type: in vivo; settings: Sprague-Dawley, rat, plasma, male SD rats, oral 10.0 mg/kg, intravenous 1.0 mg/kg, route and unit inferred
Protocol: Using rats as test animals, an LC/MS/MS method was used to determine the drug concentrations in plasma at different times after oral and intravenous administration of Compound 1a and Compound 14 in the rats. The pharmacokinetic behavior of the compounds of the present invention in rats was studied, and pharmacokinetic characteristics thereof were evaluated.
For each compound, 6 healthy adult SD (Sprague-Dawley) rats, male, were divided into oral and intravenous administration groups, 3 rats in each group, purchased from Shanghai SIPPR/BK Laboratory Animal Co., Ltd., animal production license number: SCXK (Shanghai) 2008-0016.
A specific amount of the drug was weighed and dissolved in 5% dimethylacetamide (DMA) + 5% polyethylene glycol-15 hydroxystearate (solutol) + 90% saline solution to prepare a 0.2 mg/mL solution.
The SD rats were fasted overnight and were administered orally and intravenously. The oral dose was 10.0 mg/kg, and the intravenous dose was 1.0 mg/kg.
Compound 1a and Compound 14 were administered orally and intravenously to the rats. At 0.083, 0.25, 0.5, 1, 2, 4, 8, and 24 hours after administration, 0.2 mL of blood was collected from the submandibular vein or other suitable blood vessels, placed in K2-EDTA tubes, and then stored on ice. Within one hour, the plasma was separated by centrifugation at 6,800 g for 6 minutes at 2-8° C., and stored at -80° C. for LC/MS/MS analysis. The rats were fed 4 hours after administration.

human SSTR4 = target: T1, human SSTR4 (Homo sapiens, UniProt P31391); assay: radioligand binding assay, [125I]Somatostatin-14, CHO-K1 membranes
T1 construct: expressed in transfected cells
Protocol: (§1) Cell membranes were then filtered and washed, and protein-bound radioactivity was measured with a suitable instrument. The Ki values of corresponding targets were calculated using a Cheng-Prusoff formula.

rat CFA pain model [3] = assay: single-dose pharmacodynamic study in rat CFA pain model (Von Frey PWT); type: in vivo; settings: for Mechanical allodynia test (PWT (g), mean) Baseline: 10 mg/kg I.P. group, baseline 24 h after CFA, before administration; for Mechanical allodynia test (PWT (g), mean) 1 hour: 1 hour after single administration; for Mechanical allodynia test (PWT (g), mean) 3 hours: 3 hours after single administration; for inhibition of CFA-induced mechanical allodynia (in words): single administration, FIG. 1
Protocol: Each male SD rat (7-8 weeks old) was injected with 50 microliters of CFA in the center of the left hind paw. A PWT basal value test was conducted 24 hours after modeling, and the drugs were administered after randomization.
There were 8 animals in each group, and the animals were weighed and administered according to Table 4.
For all groups of animals, paw withdrawal thresholds (PWTs) of the animals were tested using Von Frey after 1 h and 3 h of single administration.

human SSTR3 = target: T2, human SSTR3 (Homo sapiens, UniProt P32745); assay: biochemical; settings: 25° C., 2 hours, Cheng-Prusoff; read-out: Binding Ki (nM) SSTR3
T2 construct: expressed in transfected cells; host or cells: CHO-K1 (membrane homogenates)
Protocol: as §1

human SSTR5 = target: T3, human SSTR5 (Homo sapiens, UniProt P35346); assay: biochemical; settings: 25° C., 2 hours, Cheng-Prusoff; read-out: Binding Ki (nM) SSTR5
T3 construct: expressed in transfected cells; host or cells: CHO-K1 (membrane homogenates)
Protocol: as §1

human SSTR1 = target: T4, human SSTR1 (Homo sapiens, UniProt P30872); assay: biochemical; settings: 25° C., 2 hours, Cheng-Prusoff; read-out: Binding Ki (nM) SSTR1
T4 construct: expressed in transfected cells; host or cells: CHO-K1 (membrane homogenates)
Protocol: as §1

human SSTR2 = target: T5, human SSTR2 (Homo sapiens, UniProt P30874); assay: biochemical; settings: 25° C., 2 hours, Cheng-Prusoff; read-out: Binding Ki (nM) SSTR2
T5 construct: expressed in transfected cells; host or cells: CHO-K1 (membrane homogenates)
Protocol: as §1

T1 sequence (P31391 whole entry): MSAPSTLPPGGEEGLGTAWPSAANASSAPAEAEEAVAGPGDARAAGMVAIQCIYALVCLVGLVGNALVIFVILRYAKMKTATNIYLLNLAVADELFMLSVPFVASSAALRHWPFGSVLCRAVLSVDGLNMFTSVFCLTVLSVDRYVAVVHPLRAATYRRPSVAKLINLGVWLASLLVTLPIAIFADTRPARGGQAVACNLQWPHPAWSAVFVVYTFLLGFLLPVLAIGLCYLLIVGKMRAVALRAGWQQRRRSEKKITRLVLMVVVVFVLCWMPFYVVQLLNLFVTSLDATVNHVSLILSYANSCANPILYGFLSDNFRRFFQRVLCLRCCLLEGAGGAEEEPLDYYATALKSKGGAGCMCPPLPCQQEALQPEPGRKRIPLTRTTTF
T5 sequence (P30874 whole entry): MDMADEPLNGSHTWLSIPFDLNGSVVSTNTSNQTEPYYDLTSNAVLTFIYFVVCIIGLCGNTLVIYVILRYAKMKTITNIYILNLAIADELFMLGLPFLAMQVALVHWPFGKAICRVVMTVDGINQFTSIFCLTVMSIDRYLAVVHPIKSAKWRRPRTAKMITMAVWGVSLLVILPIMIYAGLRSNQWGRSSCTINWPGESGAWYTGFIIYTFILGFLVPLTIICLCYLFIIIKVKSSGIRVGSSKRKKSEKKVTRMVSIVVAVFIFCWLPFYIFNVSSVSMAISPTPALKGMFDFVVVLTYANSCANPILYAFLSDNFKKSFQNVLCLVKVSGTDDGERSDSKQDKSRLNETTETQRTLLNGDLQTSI
T4 sequence (P30872 whole entry): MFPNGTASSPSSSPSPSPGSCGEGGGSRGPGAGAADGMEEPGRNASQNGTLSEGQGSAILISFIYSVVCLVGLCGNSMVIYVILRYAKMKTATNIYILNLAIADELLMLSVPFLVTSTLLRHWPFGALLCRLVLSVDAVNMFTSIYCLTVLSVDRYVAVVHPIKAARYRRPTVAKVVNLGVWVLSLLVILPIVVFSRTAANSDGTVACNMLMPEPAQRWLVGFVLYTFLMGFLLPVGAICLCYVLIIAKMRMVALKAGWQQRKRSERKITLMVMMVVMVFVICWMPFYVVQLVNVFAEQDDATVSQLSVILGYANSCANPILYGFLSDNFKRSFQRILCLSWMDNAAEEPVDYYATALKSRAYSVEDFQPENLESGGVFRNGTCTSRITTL
T3 sequence (P35346 whole entry): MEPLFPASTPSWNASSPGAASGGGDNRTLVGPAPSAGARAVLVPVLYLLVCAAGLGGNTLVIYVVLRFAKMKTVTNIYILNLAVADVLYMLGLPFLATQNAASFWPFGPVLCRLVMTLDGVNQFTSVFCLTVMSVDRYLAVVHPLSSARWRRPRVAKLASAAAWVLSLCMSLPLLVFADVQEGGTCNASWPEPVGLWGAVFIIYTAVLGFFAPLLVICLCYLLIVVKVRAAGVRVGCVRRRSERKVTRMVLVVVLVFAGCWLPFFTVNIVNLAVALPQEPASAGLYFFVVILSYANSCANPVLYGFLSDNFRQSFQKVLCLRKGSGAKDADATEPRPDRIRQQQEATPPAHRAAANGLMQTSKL
T2 sequence (P32745 whole entry): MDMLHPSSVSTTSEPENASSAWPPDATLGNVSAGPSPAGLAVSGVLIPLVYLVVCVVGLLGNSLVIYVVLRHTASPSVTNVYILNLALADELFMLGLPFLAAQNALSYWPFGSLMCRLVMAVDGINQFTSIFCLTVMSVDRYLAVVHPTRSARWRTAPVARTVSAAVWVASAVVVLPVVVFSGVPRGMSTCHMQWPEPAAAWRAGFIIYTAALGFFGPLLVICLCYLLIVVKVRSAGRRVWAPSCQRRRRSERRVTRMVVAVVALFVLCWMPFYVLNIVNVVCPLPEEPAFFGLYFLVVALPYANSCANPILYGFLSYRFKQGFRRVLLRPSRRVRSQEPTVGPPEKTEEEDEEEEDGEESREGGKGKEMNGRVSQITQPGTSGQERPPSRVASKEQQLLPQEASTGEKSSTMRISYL

## CSc1cccn2c(C(C)(C)NC(=O)[C@H]3[C@@H]4CNC[C@@H]43)ncc12 [Compound 1a, (1R,5S,6R)-N-(2-(8-(Methylthio)Imidazo[1,5-a]Pyridin-3-yl)Prop-2-yl)-3-Azabicyclo[3.1.0]Hexane-6-Carboxamide]
Rat CFA pain model [1]; 10 mg/kg oral group
  Paw withdrawal threshold (PWT(g)) (average) 0 hours: 3.016 g
Rat CFA pain model [1]; 10 mg/kg oral
  Paw withdrawal threshold (PWT(g)) (average) 1 hour: 4.020 g
  Paw withdrawal threshold (PWT(g)) (average) 2 hours: 6.722 * g
  Paw withdrawal threshold (PWT(g)) (average) 4 hours: 8.438 **** g
Rat CFA pain model [1]; 30 mg/kg oral group
  Paw withdrawal threshold (PWT(g)) (average) 0 hours: 3.118 g
Rat CFA pain model [1]; 30 mg/kg oral
  Paw withdrawal threshold (PWT(g)) (average) 1 hour: 4.173 g
  Paw withdrawal threshold (PWT(g)) (average) 2 hours: 7.637 ** g
  Paw withdrawal threshold (PWT(g)) (average) 4 hours: 10.958 **** ### g
Rat CFA pain model [1]; 100 mg/kg oral group
  Paw withdrawal threshold (PWT(g)) (average) 0 hours: 3.118 g
Rat CFA pain model [1]; 100 mg/kg oral
  Paw withdrawal threshold (PWT(g)) (average) 1 hour: 3.855 g
  Paw withdrawal threshold (PWT(g)) (average) 2 hours: 9.549 **** g
  Paw withdrawal threshold (PWT(g)) (average) 4 hours: 9.687 **** # g
Rat CFA pain model [1]; 30 mpk and 100 mpk groups, oral, 4 hours after administration
  efficacy compared with positive control compound indomethacin (in words): significantly better than that of the positive control compound indomethacin
Rat CFA pain model [1]; oral 10, 30, 100 mg/kg, 2 and 4 hours after administration
  inhibition of CFA-induced mechanical hyperalgesia (in words): dose-dependently inhibit
Rat CFA pain model [1]; oral, inhibition of CFA-induced mechanical hyperalgesia
  onset dose: 10 mg/kg
[2]
  half-life: 2.58 ± 1.07 h
[2]; read-out: Apparent volume of distribution
  Vd: 5.12 ± 1.14 L/kg
[2]; read-out: Clearance rate
  clearance: 53 ± 1.76 mL/min/kg
Human SSTR4
  Ki: 0.00552 µM
Human SSTR4; binding selectivity to SSTRs 1-5
  SSTR4 selectivity (in words): the best
Human SSTR4; ratio of binding Ki values, selectivity
  SSTR4 /SSTR 1: > 1500
Rat CFA pain model [3]
  Mechanical allodynia test (PWT (g), mean) Baseline: 3.554 g
Rat CFA pain model [3]; 10 mg/kg I.P.
  Mechanical allodynia test (PWT (g), mean) 1 hour: 6.484 * # g
  Mechanical allodynia test (PWT (g), mean) 3 hours: 8.371 **** g
  inhibition of CFA-induced mechanical allodynia (in words): inhibited CFA-induced mechanical allodynia
Rat CFA pain model [3]; 10 mg/kg I.P., 1 hour and 3 hours after administration
  efficacy compared with Control Compound A (in words): significantly better than that of Control Compound A
Human SSTR3
  Ki: > 3420 nM
Human SSTR5
  Ki: > 5650 nM
Human SSTR1
  Ki: > 8280 nM
Human SSTR2
  Ki: > 5310 nM

## Cc1cccc2c(C(C)(C)NC(=O)[C@H]3[C@@H]4CNC[C@@H]43)nn(C)c12 [Control Compound A, reference compound]
Rat CFA pain model [3]
  Mechanical allodynia test (PWT (g), mean) Baseline: 3.765 g
Rat CFA pain model [3]; 10 mg/kg I.P.
  Mechanical allodynia test (PWT (g), mean) 1 hour: 3.813 g
  Mechanical allodynia test (PWT (g), mean) 3 hours: 6.237 * g
  inhibition of CFA-induced mechanical allodynia (in words): inhibited CFA-induced mechanical allodynia
Human SSTR3
  Ki: > 3420 nM
Human SSTR5
  Ki: > 5650 nM
Human SSTR1
  Ki: 1800 nM
Human SSTR2
  Ki: > 5310 nM
